Results: paper PMC3634096 (The Korean Journal of Physiology & Pharmacology : …, 2013)

Target: GABAC receptor ρ1 subunit (homomeric) (Homo sapiens, UniProt P24046)
Test: two-electrode voltage clamp in Xenopus oocytes, inhibition of GABA
Type: cell-based

Chain of GABAC receptor ρ1 subunit (homomeric) (P24046 22-479): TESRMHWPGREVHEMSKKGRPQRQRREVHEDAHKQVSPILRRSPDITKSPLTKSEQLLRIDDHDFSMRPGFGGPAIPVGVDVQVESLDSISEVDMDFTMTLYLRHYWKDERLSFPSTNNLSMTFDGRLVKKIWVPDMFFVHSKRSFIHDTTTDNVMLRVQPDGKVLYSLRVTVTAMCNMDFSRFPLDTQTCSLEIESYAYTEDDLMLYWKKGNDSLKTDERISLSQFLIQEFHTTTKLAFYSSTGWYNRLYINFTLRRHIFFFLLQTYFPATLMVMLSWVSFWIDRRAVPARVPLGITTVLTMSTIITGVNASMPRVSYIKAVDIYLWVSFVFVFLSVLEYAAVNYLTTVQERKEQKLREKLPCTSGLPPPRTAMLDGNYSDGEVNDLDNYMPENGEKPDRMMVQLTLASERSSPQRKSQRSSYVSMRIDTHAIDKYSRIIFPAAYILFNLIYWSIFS

IC50: 28.9 ± 2.8 µM
SMILES: Oc1ccc(/C=C/c2cc(O)cc(O)c2)cc1 [Res, Resveratrol]
